# Positions of bridges follow the written chain, without caps; N, C: chain ends. Non-standard residues stand in square brackets, D forms with d. Residues, ends and D or L forms follow the SMILES beside them. *: point of attachment. FITC = O=C1OC2(c3ccc(O)cc3Oc3cc(O)ccc32)c2ccc(NC(=S)*)cc21; R8 = C=CCCCCCC[C@@](C)(N)C(=O)O; S5 = C=CCCC[C@](C)(N)C(=O)O; AEEA = NCCOCCOCC(=O)O
# What was measured:
# [1] = tested on: ss-RNA miR-21 3´; experiment: EMSA with single-stranded RNA; type: binding; conditions: fluorescein-labeled peptide 3 μM, oligonucleotide 9 μM
# [2] = tested on: ds miR-21; experiment: EMSA with ds miR-21; type: binding; conditions: peptide 6 μM, ds miR-21 3 μM
# Experimental: Electrophoretic mobility shift assays (EMSAs) were performed using a Bio-Rad Mini-Protean gel system paired with a direct current (DC) power source (PowerPac™ HC, Bio-Rad). Typically, 6 μl solutions containing ds RNA (c = 3 μM) and fluorescein-labeled peptide (c = 6 μM) were incubated in binding buffer (10 mM Tris (pH 8.0), 0.5 mM EDTA, 12.5% glycerol and 150 mM KCl) at 4°C for 1 h. After incubation, bound RNA was resolved from peptide-free RNA using 10% non-denaturing polyacrylamide gels at 120 V in running buffer (25 mM Tris (pH 8.0), 200 mM glycine, 20 mM NaCl) at 4°C for 1 h. Visualization of fluorescent gel-bound species was conducted using a Typhoon Trio + fluorescence scanner (GE Healthcare Life Sciences). For nucleic acid visualization, gels were stained using 2 μl of SYBR™ gold nucleic acid gel dye (Molecular Probes) in 20 ml of TAE buffer (40 mM Tris, 1 mM EDTA, 20 mM acetic acid) for 45 min at RT before being visualized using a FluorChem™ gel documentation system (Alpha Innotech). To assess B3 binding to different ds RNA sequences (Supplementary Figure S20), 6 μl solutions containing hairpin RNA (c = 1 μM) and fluorescein-labeled B3 (c = 2 μM) were incubated in binding buffer (TAE and 10% glycerol) at RT for 1 h, and then resolved using 15% non-denaturing polyacrylamide gels (acrylamide/bis-acrylamide (19:1) in TAE) at 150 V in running buffer (TAE) at 4°C for 1.5 h. Visualization of fluorescent gel-bound species was conducted using a Bio-Rad ChemiDoc (Bio-Rad). Subsequently, gels were stained with SYBR™ gold nucleic acid gel dye (Invitrogen) as described above and visualized using the same imaging system. To assess B3 binding to pre–miR-21 (Supplementary Figure S24), the RNA was prepared at a fixed concentration (c = 1 μM) and incubated with varying concentrations of fluorescein-labeled B3 (c = 0–5 μM) in binding buffer (TAE and 10% glycerol) at RT for 1 h. […]
# [3] = tested on: K562 human leukemia cells; experiment: Peptide uptake by flow cytometry; type: cell-based; conditions: fluorescein-labeled peptide 1 μM, 90 min
# Experimental: 2 × 10^6 K562 cells were plated per well in 48-well plates in presence of fluorescein-labeled peptides (c = 1 μM, 0.5% DMSO) in a total volume of 300 μl. After 90 min, cells were treated with proteinase K (2 μg·ml^−1) for 10 min to remove extracellular peptides. Cells were extensively washed and total uptake of labeled peptide was measured by flow cytometry (Cytoflex, Beckman Coulter with the CytExpert software version 2.3). For each peptide, 20 000 events per sample were collected with >85% viable cells (forward/side scatter) that were considered for analysis using a 525/40 nm filter. DMSO was used as a control to distinguish general DMSO-related and peptide-specific effects. Each experiment was performed in triplicate.
# [4] = tested on: miR-21 duplex; experiment: Thermal denaturation of miR-21 duplex (CD melting); type: binding; conditions: miR-21 2 μM, unlabeled peptide 4 μM
# Experimental: For each sample, 10 CD spectra were measured between λ = 200 and 350 nm with continuous scan mode (1 mdeg sensitivity, 1.0 nm resolution, 1.0 nm bandwidth, 2 s integration time, 100 nm·min^−1 scan rate). Obtained spectra were averaged and then subtracted from a reference buffer spectrum. CD data were normalized to oligonucleotide strand concentration using Formula (1):(1) where θ = observed ellipticity (mdeg), c = DNA strand concentration (mol·l^−1) and l = path length (cm).
# Melting temperature (Tm) determination was conducted using the same instrumentation and sample preparation, where ellipticity (θ = 267 nm) was measured by ramping the temperature from 15–90°C (4°C·min^−1 ramp, ±0.05°C equilibration tolerance, 6 s delay after equilibration). Data points were recorded every 0.5°C. Raw data was normalized as described above and Tm-values were determined using the CDpal program ([44]) before being plotted in Prism 5.0 (GraphPad).
# [5] = tested on: Dicer processing of pre-miR-21; experiment: Dicer cleavage assay of pre-miR-21; type: biochemical; conditions: pre-miR-21 40 nM; for inhibition of pre-miR-21 maturation by Dicer (in words): Dicer 4 U·ml^−1, peptide 10–600 nM
# Experimental: Next, RhDicer (0.5 U·μl^−1 solution; Genlantis) was diluted in buffer (20 mM Tris·HCl, pH 6.8, 100 mM NaCl, 1 mM MgCl2, 1 mM DTT, 5 mM β-mercaptoethanol, 10% glycerol, 0.1% Triton-X 100) to a concentration of 40 U·ml^−1 and then added to the peptide/RNA solutions (final RhDicer concentration: 4 U·ml^−1). The reaction solution was incubated for 150 min at 37°C, then denatured for 5 min at 70°C, and stored at 4°C. Subsequently, a 1:10 dilution in H2O of the reaction solution was performed and added to a Poly(A) Tailing and reverse transcription solution as previously reported ([62]). The samples were incubated at 42°C for 1 h before subsequent inactivation for 5 min at 95°C and cooling to 4°C. Next, qRT-PCR of each sample was performed using the primers miR21–5p–RV1 ([…]), miR21-5p-FW1 ([…]), and miRNA-RT1 ([…]) in a StepOnePlus™ real-time PCR system (Thermo Fisher Scientific). Briefly, 1 μl of template DNA solution was added to a solution of Luna® Universal Probe qPCR Master Mix (New England Biolabs) with a final primer concentration of 125 nM in 20 μl per sample. Samples were initially denatured for 5 min at 95°C followed by 45 temperature cycles of 15 s at 95°C and 30 s at 66°C. The quantification was done using miR-21-5p standard curves. To visualize the inhibitory potential of each peptide the normalized abundance of mature miR-21 (%) is plotted against the peptide concentration (nM).
SMILES,binding to single-stranded RNA in EMSA [1],binding to ds miR-21 in EMSA [2],fold increase in uptake relative to wt33 [3] [fold],ΔTm of miR-21 duplex [4],cellular uptake (in words) [3],inhibition of pre-miR-21 maturation by Dicer (in words) [5],"IC50 ([5]; recombinant Dicer 4 U·ml^−1, 150 min, 37°C, N-terminally acetylated peptide, qRT-PCR of miR-21, triplicate, read-out: Half-maximal Dicer inhibition) [nM]"
"CC(C)C[C@@H]1NC(=O)[C@@](C)(NC(=O)[C@H](CO)NC(=O)[C@H](CCCNC(=N)N)NC(=O)[C@H](CCCNC(=N)N)NC(=O)[C@H](CCC(N)=O)NC(=O)[C@H](CCC(=O)O)NC(=O)[C@H](CO)NC(=O)[C@@H]2CCCN2C(=O)[C@H](CO)NC(=O)[C@H](CCCCN)NC(=O)[C@H](Cc2c[nH]cn2)NC(=O)CNC(=O)[C@H](CCCNC(=N)N)NC(=O)[C@H](CCC(=O)O)NC(=O)[C@H](CCCCN)NC(=O)[C@H](CCCNC(=N)N)NC(=O)[C@H](CC(N)=O)NC(=O)[C@]2(C)CCCC=CCCCCCC[C@@](C)(NC(=O)[C@H](CCC(N)=O)NC(=O)[C@H](CCCCN)NC(=O)[C@H](CCCCN)NC(=O)COCCOCCNC(=S)Nc3ccc4c(c3)C(=O)OC43c4ccc(O)cc4Oc4cc(O)ccc43)C(=O)N[C@@H](CCC(N)=O)C(=O)N[C@@H](CCCNC(=N)N)C(=O)N[C@@H](CCCCN)C(=O)N[C@@H](CCCNC(=N)N)C(=O)N[C@@H](Cc3c[nH]cn3)C(=O)N[C@@H](CCCCN)C(=O)N2)CCCC=CCCC[C@@](C)(C(=O)N[C@@H](CCCNC(=N)N)C(N)=O)NC(=O)[C@H](Cc2c[nH]cn2)NC(=O)[C@H](Cc2c[nH]c3ccccc23)NC1=O [C1] ({FITC-AEEA}-KKQ[R8]QRKRHK[S5]NRKERGHKSPSEQRRS[S5]LWH[S5]R-NH2; staple 4-11, 28-32)",did not bind,formation of peptide/RNA complexes,264,> 10 °C,,,
"CC(C)C[C@@H]1NC(=O)[C@H](CCC(=O)O)NC(=O)[C@H](CO)NC(=O)[C@@](C)(NC(=O)[C@H](CCCNC(=N)N)NC(=O)[C@H](CCC(N)=O)NC(=O)[C@H](CCC(=O)O)NC(=O)[C@H](CO)NC(=O)[C@@H]2CCCN2C(=O)[C@H](CO)NC(=O)[C@H](CCCCN)NC(=O)[C@H](Cc2c[nH]cn2)NC(=O)[C@]2(C)CCCC=CCCCCCC[C@@](C)(NC(=O)[C@H](Cc3c[nH]cn3)NC(=O)[C@H](CCCNC(=N)N)NC(=O)[C@H](CCCCN)NC(=O)[C@H](CCCNC(=N)N)NC(=O)[C@H](CCC(N)=O)NC(=O)[C@H](C)NC(=O)[C@H](CCC(N)=O)NC(=O)[C@H](CCCCN)NC(=O)[C@H](CCCCN)NC(=O)COCCOCCNC(=S)Nc3ccc4c(c3)C(=O)OC43c4ccc(O)cc4Oc4cc(O)ccc43)C(=O)N[C@@H](CC(C)C)C(=O)N[C@@H](CC(N)=O)C(=O)N[C@@H](CCCNC(=N)N)C(=O)N[C@@H](CCCCN)C(=O)N[C@@H](CCC(=O)O)C(=O)N[C@@H](CCCNC(=N)N)C(=O)N2)CCCC=CCCC[C@@](C)(C(=O)N[C@@H](Cc2c[nH]cn2)C(=O)N[C@@H](C)C(=O)N[C@@H](CCCNC(=N)N)C(N)=O)NC1=O [D1] ({FITC-AEEA}-KKQAQRKRH[R8]LNRKER[S5]HKSPSEQR[S5]SEL[S5]HAR-NH2; staple 10-17, 26-30)",,did not show binding,,only showed a mild effect on duplex stability,considerably enhanced cellular uptake,showed only small effects,
"CC(C)C[C@H](NC(=O)[C@]1(C)CCCC=CCCC[C@](C)(NC(=O)[C@H](CCC(=O)O)NC(=O)[C@H](CO)NC(=O)[C@@H]2CCCN2C(=O)[C@H](CO)NC(=O)[C@H](CCCCN)NC(=O)[C@H](Cc2c[nH]cn2)NC(=O)CNC(=O)[C@H](CCCNC(=N)N)NC(=O)[C@]2(C)CCCC=CCCC[C@](C)(NC(=O)[C@H](CCCCN)NC(=O)[C@H](Cc3c[nH]cn3)NC(=O)[C@H](CCCNC(=N)N)NC(=O)[C@H](CCCCN)NC(=O)[C@H](CCCNC(=N)N)NC(=O)[C@H](CCC(N)=O)NC(=O)[C@H](C)NC(=O)[C@H](CCC(N)=O)NC(=O)[C@H](CCCCN)NC(=O)[C@H](CCCCN)NC(=O)COCCOCCNC(=S)Nc3ccc4c(c3)C(=O)OC43c4ccc(O)cc4Oc4cc(O)ccc43)C(=O)N[C@@H](CC(N)=O)C(=O)N[C@@H](CCCNC(=N)N)C(=O)N[C@@H](CCCCN)C(=O)N2)C(=O)N[C@@H](CCCNC(=N)N)C(=O)N[C@@H](CCCNC(=N)N)C(=O)N[C@@H](CO)C(=O)N1)C(=O)N[C@@H](Cc1c[nH]c2ccccc12)C(=O)N[C@@H](Cc1c[nH]cn1)C(=O)N[C@@H](C)C(=O)N[C@@H](CCCNC(=N)N)C(N)=O [B3] ({FITC-AEEA}-KKQAQRKRHK[S5]NRK[S5]RGHKSPSE[S5]RRS[S5]LWHAR-NH2; staple 11-15, 24-28)",did not bind,formation of peptide/RNA complexes,,> 10 °C,,inhibited in a concentration-dependent manner,~50

# Reference: paper PMC8682738, “Constrained peptides mimic a viral suppressor of RNA silencing” (Nucleic Acids Research, 2021)
